Test results reported in publication PMC3923112, “A non-radioactive method for measuring Rubisco activase activity in the presence of variable ATP: ADP ratios, including modifications for measuring the activity and activation state of Rubisco” (Photosynthesis Research, 2014).

Tests used:
Type in all cases: biochemical
[1] = molecular target: T1, tobacco Rubisco (wild-type) (Nicotiana tabacum, UniProt P00876); experiment: continuous coupled 3-PGA formation assay (NADH, A340); conditions: ECM form, 0.5 or 2 mM RuBP, 10 mM NaHCO3, 10 mM MgCl2, 5 mM ATP, pH 8, 30 °C; RuBP also inhibits as tight ER complex
T1 construct: gene rbcL; native, purified from tobacco leaves; converted to ER form or carbamylated ECM form; with Ribulose bisphosphate carboxylase small subunit, chloroplastic
T1 sequence (P69249 58-180, other chains not shown): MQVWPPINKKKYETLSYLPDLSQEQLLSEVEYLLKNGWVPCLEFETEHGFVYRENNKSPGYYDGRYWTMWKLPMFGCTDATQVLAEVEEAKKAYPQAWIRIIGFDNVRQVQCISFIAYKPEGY

[2] = molecular target: T2, His-tagged modified Rubisco (Nicotiana tabacum, UniProt P00876); experiment: as above; conditions: ECM form, 0.5 or 2 mM RuBP, 10 mM NaHCO3, 10 mM MgCl2, 5 mM ATP, pH 8, 30 °C; RuBP also inhibits as tight ER complex
T2 construct: gene rbcL; six histidines added to the C-terminus of the large subunit; from transgenic tobacco plants; with Ribulose bisphosphate carboxylase small subunit, chloroplastic
T2 sequence (P69249 58-180, other chains not shown): as above

Arabidopsis β-RCA = molecular target: T3, Arabidopsis β-RCA (Arabidopsis thaliana, UniProt P10896); experiment: continuous coupled Rubisco activation assay (dPGM, enolase, PEP carboxylase, malate dehydrogenase; NADH, A340); conditions: ADP plus ATP 5 mM total at ADP:ATP 0.33; tobacco Rubisco ER form not restated for this set; pH 8, 30 °C, 10 mM MgCl2
T3 construct: recombinant, expressed in Escherichia coli and purified
T3 sequence (P10896 59-446 isoform P10896-2): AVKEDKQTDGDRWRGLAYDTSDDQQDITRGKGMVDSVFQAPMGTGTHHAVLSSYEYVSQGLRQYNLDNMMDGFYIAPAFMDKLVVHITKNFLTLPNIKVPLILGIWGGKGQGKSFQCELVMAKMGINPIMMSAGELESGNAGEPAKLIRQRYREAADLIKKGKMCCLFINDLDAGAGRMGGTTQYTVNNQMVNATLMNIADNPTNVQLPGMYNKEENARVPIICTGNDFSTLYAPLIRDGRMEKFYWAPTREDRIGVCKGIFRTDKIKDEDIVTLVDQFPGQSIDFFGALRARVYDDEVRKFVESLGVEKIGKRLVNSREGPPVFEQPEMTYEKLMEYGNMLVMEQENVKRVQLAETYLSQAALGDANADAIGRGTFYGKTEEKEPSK

In the case of `O=C(COP(=O)(O)O)[C@H](O)[C@H](O)COP(=O)(O)O` [RuBP], the “continuous coupled 3-PGA formation assay (NADH, A340)” value [1] is reported as “specific activity of the ECM form of wild-type and modified Rubisco” and the “continuous coupled 3-PGA formation assay (NADH, A340)” value [2] is reported as “specific activity of the ECM form of wild-type and modified Rubisco”.

For `Nc1ncnc2c1ncn2[C@@H]1O[C@H](COP(=O)(O)OP(=O)(O)O)[C@@H](O)[C@H]1O` [ADP], the “% inhibition at 0.33 ADP:ATP” value (Arabidopsis β-RCA) was 25%.
